According to US12281122B1, “PI3K inhibitors” (Cogent Biosciences, Inc., priority 2023, dated 2025):
pIC50: −log10 of the molar value.

Key:
[1] = system: SKBR3 (PI3Kα-Wild Type) cell line; test: HTRF phospho-AKT(S473) cell assay in SKBR3 cells; type: cell-based, human; settings: Homo sapiens, SK-BR-3; SKBR3 (PI3Kα-Wild Type) cells, HTRF phospho-AKT(S473), 2 hours compound incubation, PDGF-BB stimulated
In short: (§1)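 pAKT(S473) in lysates read by HTRF after a 2 h, 37 °C compound exposure (12-point 1:3 series, max 0.5% DMSO). SKBR3 (wild type, top 10 μM) received 70 ng/ml PDGF-BB during the final 15 min; T47D (H1047R, top 5 μM) was unstimulated. IC50 values derived from the dose-response.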

[2] = system: T47D (PI3Kα-H1047R) cell line; test: HTRF phospho-AKT(S473) cell assay in T47D cells; type: cell-based, human; settings: Homo sapiens; T47D (PI3Kα-H1047R) cells, HTRF phospho-AKT(S473), 2 hours compound incubation
In short: as §1

| Compound | pIC50 [1] | pIC50 [2] |
| --- | --- | --- |
| Cc1cc([C@@H](C)Nc2ccc(Cl)nc2C(=O)NS(C)(=O)=O)c2nc(N3CCC(n4cc(-c5cnc(C)cn5)cn4)CC3)n(C)c(=O)c2c1 [Compound 270, (R)-6-chloro-3-((1-(3,6-dimethyl-2-(4-(4-(5-methylpyrazin-2-yl)-1H-pyrazol-1-yl)piperidin-1-yl)-4-oxo-3,4-dihydroquinazolin-8-yl)ethyl)amino)-N-(methylsulfonyl) picolinamide] | ≤ 5.30 | > 6.60 |
| Cc1cc([C@@H](C)Nc2ccc(Cl)nc2C(=O)NS(C)(=O)=O)c2nc(N3CCC(c4ccc(C)nc4)CC3)n(C)c(=O)c2c1 [Compound 271, (R)-6-chloro-3-((1-(3,6-dimethyl-2-(4-(6-methylpyridin-3-yl)piperidin-1-yl)-4-oxo-3,4-dihydroquinazolin-8-yl)ethyl)amino)-N-(methylsulfonyl) picolinamide] | 5.30 to 6.00 | > 6.60 |
| Cc1cc([C@@H](C)Nc2ccc(Cl)nc2C(=O)NS(C)(=O)=O)c2nc(N3CCC(c4cnc(C)cn4)CC3)n(C)c(=O)c2c1 [Compound 272, (R)-6-chloro-3-((1-(3,6-dimethyl-2-(4-(5-methylpyrazin-2-yl)piperidin-1-yl)-4-oxo-3,4-dihydroquinazolin-8-yl)ethyl)amino)-N-(methylsulfonyl) picolinamide] | 5.30 to 6.00 | > 6.60 |
| Cc1cc([C@@H](C)Nc2ccc(Cl)nc2C(=O)NS(C)(=O)=O)c2nc(N3Cc4cccc(-c5cnn(C)c5)c4C3)n(C)c(=O)c2c1 [Compound 273, (R)-6-chloro-3-((1-(3,6-dimethyl-2-(4-(1-methyl-1H-pyrazol-4-yl)isoindolin-2-yl)-4-oxo-3,4-dihydroquinazolin-8-yl)ethyl)amino)-N-(methylsulfonyl) picolinamide] | ≤ 5.30 | > 6.60 |
| Cc1cc([C@@H](C)Nc2ccc(Cl)nc2C(=O)NS(C)(=O)=O)c2nc(N3Cc4cccc(-c5ccnn5C)c4C3)n(C)c(=O)c2c1 [Compound 274, (R)-6-chloro-3-((1-(3,6-dimethyl-2-(4-(1-methyl-1H-pyrazol-5-yl)isoindolin-2-yl)-4-oxo-3,4-dihydroquinazolin-8-yl)ethyl)amino)-N-(methylsulfonyl) picolinamide] | 5.30 to 6.00 | > 6.60 |
| Cc1cc([C@@H](C)Nc2ccc(Cl)nc2C(=O)NS(C)(=O)=O)c2nc(N3CCC4(CCC(O)CC4)CC3)n(C)c(=O)c2c1 [Compound 275, (R)-6-chloro-3-((1-(2-(9-hydroxy-3-azaspiro[5.5]undecan-3-yl)-3,6-dimethyl-4-oxo-3,4-dihydroquinazolin-8-yl)ethyl)amino)-N-(methylsulfonyl) picolinamide] | ≤ 5.30 | > 6.60 |
| Cc1cc([C@@H](C)Nc2ccc(Cl)nc2C(=O)NS(C)(=O)=O)c2nc(N3CCc4oncc4C3)n(C)c(=O)c2c1 [Compound 276, (R)-6-chloro-3-((1-(2-(6,7-dihydroisoxazolo[4,5-c]pyridin-5(4H)-yl)-3,6-dimethyl-4-oxo-3,4-dihydroquinazolin-8-yl)ethyl)amino)-N-(methylsulfonyl) picolinamide] | 5.30 to 6.00 | > 6.60 |
| Cc1cc([C@@H](C)Nc2ccc(Cl)nc2C(=O)NS(C)(=O)=O)c2nc(N3Cc4cn(-c5ccnn5C)nc4C3)n(C)c(=O)c2c1 [Compound 277, (R)-6-chloro-3-((1-(3,6-dimethyl-2-(2-(1-methyl-1H-pyrazol-5-yl)-2,6-dihydropyrrolo[3,4-c]pyrazol-5(4H)-yl)-4-oxo-3,4-dihydroquinazolin-8-yl)ethyl)amino)-N-(methylsulfonyl) picolinamide] | 5.30 to 6.00 | > 6.60 |
| Cc1cc([C@@H](C)Nc2ccc(Cl)nc2C(=O)NS(C)(=O)=O)c2nc(N3CCC(n4ncc5cc(N)ccc54)CC3)n(C)c(=O)c2c1 [Compound 278, (R)-3-((1-(2-(4-(5-amino-1H-indazol-1-yl)piperidin-1-yl)-3,6-dimethyl-4-oxo-3,4-dihydroquinazolin-8-yl)ethyl)amino)-6-chloro-N-(methylsulfonyl) picolinamide] | 5.30 to 6.00 | > 6.60 |
| Cc1cc([C@@H](C)Nc2ccc(Cl)nc2C(=O)NS(C)(=O)=O)c2nc(N3CCc4nn(CC5CC5)cc4C3)n(C)c(=O)c2c1 [Compound 279, (R)-6-chloro-3-((1-(2-(2-(cyclopropylmethyl)-2,4,6,7-tetrahydro-5H-pyrazolo[4,3-c]pyridin-5-yl)-3,6-dimethyl-4-oxo-3,4-dihydroquinazolin-8-yl)ethyl)amino)-N-(methylsulfonyl) picolinamide] | 5.30 to 6.00 | > 6.60 |
| CC(=O)N1CCC2(CC1)CCN(c1nc3c([C@@H](C)Nc4ccc(Cl)nc4C(=O)NS(C)(=O)=O)cc(C)cc3c(=O)n1C)CC2 [Compound 280, (R)-3-((1-(2-(9-acetyl-3,9-diazaspiro[5.5]undecan-3-yl)-3,6-dimethyl-4-oxo-3,4-dihydroquinazolin-8-yl)ethyl)amino)-6-chloro-N-(methylsulfonyl) picolinamide] | 5.30 to 6.00 | > 6.60 |
| Cc1cc([C@@H](C)Nc2ccc(Cl)nc2C(=O)NS(C)(=O)=O)c2nc(-c3ccc(O[C@H]4CCN(C)CC4(F)F)nc3)n(C)c(=O)c2c1 [Compound 281, 6-chloro-3-(((R)-1-(2-(6-(((S)-3,3-difluoro-1-methylpiperidin-4-yl)oxy)pyridin-3-yl)-3,6-dimethyl-4-oxo-3,4-dihydroquinazolin-8-yl)ethyl)amino)-N-(methylsulfonyl) picolinamide] | 5.30 to 6.00 | > 6.60 |
| COC1CCC2(CC1)CCN(c1nc3c([C@@H](C)Nc4ccc(Cl)nc4C(=O)NS(C)(=O)=O)cc(C)cc3c(=O)n1C)CC2 [Compound 282, (R)-6-chloro-3-((1-(2-(9-methoxy-3-azaspiro[5.5]undecan-3-yl)-3,6-dimethyl-4-oxo-3,4-dihydroquinazolin-8-yl)ethyl)amino)-N-(methylsulfonyl) picolinamide] | ≤ 5.30 | > 6.60 |
| Cc1cc([C@@H](C)Nc2ccc(Cl)nc2C(=O)NS(C)(=O)=O)c2nc(-c3ccc(Nc4ccccc4C)nc3)n(C)c(=O)c2c1 [Compound 283, (R)-6-chloro-3-((1-(3,6-dimethyl-4-oxo-2-(6-(o-tolylamino)pyridin-3-yl)-3,4-dihydroquinazolin-8-yl)ethyl)amino)-N-(methylsulfonyl) picolinamide] | ≤ 5.30 | > 6.60 |
| Cc1cc([C@@H](C)Nc2ccc(Cl)nc2C(=O)NS(C)(=O)=O)c2nc(-c3ccc(-c4cnn(C)c4)cn3)n(C)c(=O)c2c1 [Compound 285, (R)-6-chloro-3-((1-(3,6-dimethyl-2-(5-(1-methyl-1H-pyrazol-4-yl)pyridin-2-yl)-4-oxo-3,4-dihydroquinazolin-8-yl)ethyl)amino)-N-(methylsulfonyl) picolinamide] | 5.30 to 6.00 | > 6.60 |
| Cc1cc([C@@H](C)Nc2ccc(Cl)nc2C(=O)NS(C)(=O)=O)c2nc(N3CCc4nn(C)cc4C3)n(C)c(=O)c2c1 [Compound 286, (R)-6-chloro-3-((1-(3,6-dimethyl-2-(2-methyl-2,4,6,7-tetrahydro-5H-pyrazolo[4,3-c]pyridin-5-yl)-4-oxo-3,4-dihydroquinazolin-8-yl)ethyl)amino)-N-(methylsulfonyl) picolinamide] | 5.30 to 6.00 | > 6.60 |
| Cc1cc([C@@H](C)Nc2ccc(Cl)nc2C(=O)NS(C)(=O)=O)c2nc(N3CCC(c4cc(C)n(C)n4)CC3)n(C)c(=O)c2c1 [Compound 287, (R)-6-chloro-3-((1-(2-(4-(1,5-dimethyl-1H-pyrazol-3-yl)piperidin-1-yl)-3,6-dimethyl-4-oxo-3,4-dihydroquinazolin-8-yl)ethyl)amino)-N-(methylsulfonyl) picolinamide] | 5.30 to 6.00 | > 6.60 |
| Cc1cc([C@@H](C)Nc2ccc(Cl)nc2C(=O)NS(C)(=O)=O)c2nc(-c3cnn(C)c3)n(C)c(=O)c2c1 [Compound 288, (R)-6-chloro-3-((1-(3,6-dimethyl-2-(1-methyl-1H-pyrazol-4-yl)-4-oxo-3,4-dihydroquinazolin-8-yl)ethyl)amino)-N-(methylsulfonyl) picolinamide] | 5.30 to 6.00 | > 6.60 |
| Cc1cc([C@@H](C)Nc2ccc(Cl)nc2C(=O)NS(C)(=O)=O)c2nc(N3CCc4nn(CC5COC5)cc4C3)n(C)c(=O)c2c1 [Compound 289, (R)-6-chloro-3-((1-(3,6-dimethyl-2-(2-(oxetan-3-ylmethyl)-2,4,6,7-tetrahydro-5H-pyrazolo[4,3-c]pyridin-5-yl)-4-oxo-3,4-dihydroquinazolin-8-yl)ethyl)amino)-N-(methylsulfonyl) picolinamide] | ≤ 5.30 | > 6.60 |
| Cc1cc([C@@H](C)Nc2ccc(Cl)nc2C(=O)NS(C)(=O)=O)c2nc(N3Cc4cn(C5COC5)nc4C3)n(C)c(=O)c2c1 [Compound 290, (R)-6-chloro-3-((1-(3,6-dimethyl-2-(2-(oxetan-3-yl)-2,6-dihydropyrrolo[3,4-c]pyrazol-5(4H)-yl)-4-oxo-3,4-dihydroquinazolin-8-yl)ethyl)amino)-N-(methylsulfonyl) picolinamide] | 5.30 to 6.00 | > 6.60 |
| Cc1cc([C@@H](C)Nc2ccc(Cl)nc2C(=O)NS(C)(=O)=O)c2nc(N3CCC(Nc4cnn(C)c4)CC3)n(C)c(=O)c2c1 [Compound 291, (R)-6-chloro-3-((1-(3,6-dimethyl-2-(4-((1-methyl-1H-pyrazol-4-yl)amino)piperidin-1-yl)-4-oxo-3,4-dihydroquinazolin-8-yl)ethyl)amino)-N-(methylsulfonyl) picolinamide] | 5.30 to 6.00 | > 6.60 |
